Results from publication PMC8881610 (Nature Communications, 2022).

Key:
Assay type in all cases: cell-based
[1] = target: GCGR (Homo sapiens, UniProt P47871, Y145A); experiment: cAMP accumulation assay, GCGR WT, mutant or modified constructs; parameters: V5 (C); 6×His (C); expressed in transfected cells; host or cells: HEK293T; conditions: HEK-293T, GCGR Y145A; HEK293T
Procedure: (§1) Human embryonic kidney 293 cells containing SV40 large T-antigen (HEK293T) were cultured in DMEM (Gibco) supplemented with 10% (v/v) fetal bovine serum (FBS, Gibco), 1 mM sodium pyruvate (Gibco) and 100 units/mL penicillin and 100 μg/mL streptomycin at 37 °C in 5% CO2. Chinese hamster ovary (CHO-K1) cells were cultured in F-12 (Gibco) containing 10% FBS, 100 units/mL penicillin and 100 μg/mL streptomycin at 37 °C in 5% CO2. For cAMP and receptor expression assays, HEK293T cells were seeded into 6-well cell culture plates at a density of 7 × 10^5 cells per well. After overnight incubation, cells were transfected with GIPR, GLP-1R or GCGR construct using Lipofectamine 2000 or Lipofectamine 3000 transfection reagent (Invitrogen). For whole-cell binding assay, CHO-K1 cells were seeded into 96-well fibronectin-treated cell culture plates at a density of 3 × 10^4 cells per well. After overnight incubation, cells were transfected with GIPR, GLP-1R or GCGR construct using Lipofectamine 2000 transfection reagent (Invitrogen). Following 24 h culturing, the transfected cells were ready for use. […]
(§2) For GIPR, GLP-1R and GCGR, multi-targeting agonist stimulated cAMP accumulation was measured by a LANCE Ultra cAMP kit (PerkinElmer). After 24 h culture, the transfected cells were seeded into 384-well microtiter plates at a density of 3,000 cells per well in HBSS supplemented with 5 mM HEPES, 0.1% (w/v) BSA or 0.1% (w/v) casein and 0.5 mM 3-isobutyl-1-methylxanthine. The cells were stimulated with different concentrations of peptide agonists for 40 min at RT. Eu-cAMP tracer and ULight^TM-anti-cAMP were then diluted by cAMP detection buffer and added to the plates separately to terminate the reaction. Plates were incubated at RT for 1 h and the fluorescence intensity measured at 620 nm and […] by an EnVision multilabel plate reader (PerkinElmer).

[2] = target: GCGR (Homo sapiens, UniProt P47871, Q293A); experiment: as above; parameters: V5 (C); 6×His (C); expressed in transfected cells; host or cells: HEK293T; conditions: GCGR Q293A, HEK293T
Procedure: as §1, §2

[3] = target: GCGR (Homo sapiens, UniProt P47871, R199A); experiment: as above; parameters: V5 (C); 6×His (C); expressed in transfected cells; host or cells: HEK293T; conditions: GCGR R199A, HEK293T
Procedure: as §1, §2

[4] = target: GCGR (Homo sapiens, UniProt P47871, K205A); experiment: as above; parameters: V5 (C); 6×His (C); expressed in transfected cells; host or cells: HEK293T; conditions: GCGR K205A, HEK293T
Procedure: as §1, §2

[5] = target: GCGR (Homo sapiens, UniProt P47871, D195A/Q142A/R199A); experiment: as above; parameters: V5 (C); 6×His (C); expressed in transfected cells; host or cells: HEK293T; conditions: HEK-293T, GCGR Q142A/D195A/R199A; HEK293T
Procedure: as §1, §2

[6] = target: GCGR (Homo sapiens, UniProt P47871, W215A); experiment: as above; parameters: V5 (C); 6×His (C); expressed in transfected cells; host or cells: HEK293T; conditions: HEK-293T, GCGR W215A; HEK293T
Procedure: as §1, §2

[7] = target: T1, GLP-1R (Homo sapiens, UniProt P43220, K197A); experiment: cAMP accumulation assay, GLP-1R WT, mutant or modified constructs; conditions: HEK-293T, GLP-1R K197A; HEK293T
T1 construct: Flag; expressed in transfected cells; host or cells: HEK293T
Procedure: as §1
(§3) For GIPR, GLP-1R and GCGR, multi-targeting agonist stimulated cAMP accumulation was measured by a LANCE Ultra cAMP kit (PerkinElmer). […] Plates were incubated at RT for 1 h and the fluorescence intensity measured at 620 nm and […] by an EnVision multilabel plate reader (PerkinElmer).

[8] = target: T2, GLP-1R (Homo sapiens, UniProt P43220, R190A); experiment: as above; conditions: HEK-293T, GLP-1R R190A; HEK293T
T2 construct: Flag; expressed in transfected cells; host or cells: HEK293T
Procedure: as §1, §3

[9] = read-out: cAMP pEC50 (converted)

Sequence of GCGR (Homo sapiens, UniProt P47871, R199A) (P47871 26-477 R199A): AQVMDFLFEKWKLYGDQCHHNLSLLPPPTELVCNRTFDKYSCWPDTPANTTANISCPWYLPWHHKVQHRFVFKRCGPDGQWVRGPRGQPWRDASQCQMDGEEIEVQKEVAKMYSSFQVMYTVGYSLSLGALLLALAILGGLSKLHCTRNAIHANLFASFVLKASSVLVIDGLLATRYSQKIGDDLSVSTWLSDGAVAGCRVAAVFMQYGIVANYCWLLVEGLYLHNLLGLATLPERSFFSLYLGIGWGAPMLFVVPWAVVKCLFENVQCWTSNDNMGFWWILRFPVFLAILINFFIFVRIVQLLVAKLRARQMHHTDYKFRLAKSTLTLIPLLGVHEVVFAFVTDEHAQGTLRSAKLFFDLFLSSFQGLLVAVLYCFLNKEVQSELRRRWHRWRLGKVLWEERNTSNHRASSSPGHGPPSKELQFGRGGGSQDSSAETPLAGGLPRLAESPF
Sequence of GCGR (Homo sapiens, UniProt P47871, Q293A) (P47871 26-477 Q293A): as the sequence (P47871 26-477 R199A) above, with A174R, Q268A counted along it
Sequence of GCGR (Homo sapiens, UniProt P47871, K205A) (P47871 26-477 K205A): as the sequence (P47871 26-477 R199A) above, with A174R, K180A counted along it
Sequence of GCGR (Homo sapiens, UniProt P47871, D195A/Q142A/R199A) (P47871 26-477 Q142A/D195A/R199A): as the sequence (P47871 26-477 R199A) above, with Q117A, D170A counted along it
T1 sequence (P43220 24-463 K197A): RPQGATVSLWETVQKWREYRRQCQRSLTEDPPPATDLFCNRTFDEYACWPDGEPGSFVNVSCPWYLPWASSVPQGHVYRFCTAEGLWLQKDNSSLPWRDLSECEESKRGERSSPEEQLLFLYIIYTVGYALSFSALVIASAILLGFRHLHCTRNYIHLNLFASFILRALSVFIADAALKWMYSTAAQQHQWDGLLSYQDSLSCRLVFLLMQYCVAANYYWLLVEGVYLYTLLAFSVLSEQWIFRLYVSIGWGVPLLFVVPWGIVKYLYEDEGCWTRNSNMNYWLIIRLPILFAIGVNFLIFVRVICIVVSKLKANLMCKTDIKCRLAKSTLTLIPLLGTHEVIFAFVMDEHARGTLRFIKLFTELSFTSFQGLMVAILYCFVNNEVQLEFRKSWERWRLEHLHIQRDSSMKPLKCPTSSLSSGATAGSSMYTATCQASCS
T2 sequence (P43220 24-463 R190A): as the sequence (P43220 24-463 K197A) above, with R167A, A174K counted along it
Sequence of GCGR (Homo sapiens, UniProt P47871, W215A) (P47871 26-477 W215A): as the sequence (P47871 26-477 R199A) above, with A174R, W190A counted along it
Sequence of GCGR (Homo sapiens, UniProt P47871, Y145A) (P47871 26-477 Y145A): as the sequence (P47871 26-477 R199A) above, with Y120A, A174R counted along it

| Compound | Emax [1] | EC50 [2, 9] | Emax ([2]; HEK-293T) | EC50 [3, 9] | Emax ([3]; HEK-293T) | EC50 [4, 9] | Emax ([4]; HEK-293T) | Emax [5] | Emax [6] | Emax [7] | Emax [8] |
| --- | --- | --- | --- | --- | --- | --- | --- | --- | --- | --- | --- |
| CCCCCCCCCCCCCCCC(=O)N[C@@H](CCC(=O)NCCCC[C@H](NC(=O)[C@H](CC(=O)O)NC(=O)[C@H](CO)NC(=O)[C@@H](NC(=O)[C@H](Cc1ccccc1)NC(=O)[C@@H](NC(=O)CNC(=O)[C@H](CCC(N)=O)NC(=O)C(C)(C)NC(=O)[C@@H](N)Cc1c[nH]cn1)[C@@H](C)O)[C@@H](C)O)C(=O)N[C@@H](CO)C(=O)N[C@@H](CCCCN)C(=O)N[C@@H](Cc1ccc(O)cc1)C(=O)N[C@@H](CC(C)C)C(=O)N[C@@H](CC(=O)O)C(=O)N[C@@H](CCC(=O)O)C(=O)N[C@@H](CCCNC(=N)N)C(=O)N[C@@H](C)C(=O)N[C@@H](C)C(=O)N[C@@H](CCC(N)=O)C(=O)N[C@@H](CC(=O)O)C(=O)N[C@@H](Cc1ccccc1)C(=O)N[C@H](C(=O)N[C@@H](CCC(N)=O)C(=O)N[C@@H](Cc1c[nH]c2ccccc12)C(=O)N[C@@H](CC(C)C)C(=O)N[C@@H](CC(C)C)C(=O)N[C@@H](CC(=O)O)C(=O)NCC(=O)NCC(=O)N1CCC[C@H]1C(=O)N[C@@H](CO)C(=O)N[C@@H](CO)C(=O)NCC(=O)N[C@@H](C)C(=O)N1CCC[C@H]1C(=O)N1CCC[C@H]1C(=O)N1CCC[C@H]1C(=O)N[C@@H](CO)C(N)=O)C(C)C)C(=O)O [Peptide 20] | 103 ± 1.79% | 0.00832 nM | 99.5 ± 1.63% | 0.0129 nM | 99.7 ± 1.47% | 0.0132 nM | 101 ± 1.28% | 100 ± 2.37% | 99.6 ± 2.02% |  |  |
| CC[C@H](C)[C@H](NC(=O)[C@H](CC(C)C)NC(=O)[C@H](Cc1c[nH]c2ccccc12)NC(=O)[C@H](CCC(N)=O)NC(=O)[C@@H](NC(=O)[C@H](Cc1ccccc1)NC(=O)[C@H](C)NC(=O)[C@H](CCCCNC(=O)COCCOCCNC(=O)COCCOCCNC(=O)CC[C@H](NC(=O)CCCCCCCCCCCCCCCCCCC(=O)O)C(=O)O)NC(=O)[C@H](CCC(N)=O)NC(=O)[C@H](C)NC(=O)[C@@H](NC(=O)[C@H](CCCCN)NC(=O)[C@H](CC(=O)O)NC(=O)[C@H](CC(C)C)NC(=O)C(C)(C)NC(=O)[C@@H](NC(=O)[C@H](CO)NC(=O)[C@H](Cc1ccc(O)cc1)NC(=O)[C@H](CC(=O)O)NC(=O)[C@H](CO)NC(=O)[C@@H](NC(=O)[C@H](Cc1ccccc1)NC(=O)[C@@H](NC(=O)CNC(=O)[C@H](CCC(=O)O)NC(=O)C(C)(C)NC(=O)[C@@H](N)Cc1ccc(O)cc1)[C@@H](C)O)[C@@H](C)O)[C@@H](C)CC)[C@@H](C)CC)C(C)C)C(=O)N[C@@H](C)C(=O)NCC(=O)NCC(=O)N1CCC[C@H]1C(=O)N[C@@H](CO)C(=O)N[C@@H](CO)C(=O)NCC(=O)N[C@@H](C)C(=O)N1CCC[C@H]1C(=O)N1CCC[C@H]1C(=O)N1CCC[C@H]1C(=O)N[C@@H](CO)C(N)=O [Tirzepatide] |  |  |  |  |  |  |  |  |  | 111 ± 2.77% | 102 ± 2.41% |
